Consider four compounds from PubChem BioAssay AID1259407 (Chemical Carcinogenesis Research Information System (CCRIS), 2018).

This data set relates to CCRIS mutagenicity, Ames/micronucleus/aberration tests. Put plainly: CCRIS mutagenicity studies.
[1] abbreviates: Test System: AMES SALMONELLA TYPHIMURIUM, Strain/Indicator: TA98, Metabolic Activation: NONE, Method: PREINCUBATION
The mark [2] stands for this setting: Test System: AMES SALMONELLA TYPHIMURIUM, Strain/Indicator: TA98, Metabolic Activation: NONE, Method: STANDARD PLATE.
[3] abbreviates: Test System: AMES SALMONELLA TYPHIMURIUM, Strain/Indicator: TA100, Metabolic Activation: NONE, Method: STANDARD PLATE.
The mark [4] stands for this setting: Test System: AMES SALMONELLA TYPHIMURIUM, Strain/Indicator: TA98, Metabolic Activation: RAT, LIVER, S-9, AROCLOR 1254, Method: STANDARD PLATE.
The mark [5] stands for this setting: Test System: AMES SALMONELLA TYPHIMURIUM, Strain/Indicator: TA100, Metabolic Activation: RAT, LIVER, S-9, AROCLOR 1254, Method: STANDARD PLATE.

Activity calls are given as the source filed them. The rule behind the calls is not given here.

For `O=[N+]([O-])c1ccc2ccc3cc4ccccc4c4ccc1c2c34`, the mutagenic call by setting is: (Test System: AMES SALMONELLA TYPHIMURIUM, Strain/Indicator: TA98(1,8-DNP6), Metabolic Activation: NONE) “active; positive”; (Test System: AMES SALMONELLA TYPHIMURIUM, Strain/Indicator: TA98(1,8-DNP6), Metabolic Activation: NONE, Method: STANDARD PLATE) “active; positive”; (Test System: AMES SALMONELLA TYPHIMURIUM, Strain/Indicator: TA98(1,8-DNP6), Metabolic Activation: RAT, LIVER, S-9, AROCLOR 1254) “active; positive”; (Test System: AMES SALMONELLA TYPHIMURIUM, Strain/Indicator: TA98(NR), Metabolic Activation: NONE) “active; positive”; (Test System: AMES SALMONELLA TYPHIMURIUM, Strain/Indicator: TA98(NR), Metabolic Activation: NONE, Method: PREINCUBATION) “active; positive”; (Test System: AMES SALMONELLA TYPHIMURIUM, Strain/Indicator: TA98(NR), Metabolic Activation: NONE, Method: STANDARD PLATE) “inactive; negative”. Also, the mutagenic call (Test System: AMES SALMONELLA TYPHIMURIUM, Strain/Indicator: TA98(NR), Metabolic Activation: RAT, LIVER, S-9, AROCLOR 1254) was “active; positive”; the mutagenic call (Test System: AMES SALMONELLA TYPHIMURIUM, Strain/Indicator: TA98, Metabolic Activation: NONE) was “active; positive”; the mutagenic call (Test System: AMES SALMONELLA TYPHIMURIUM, Strain/Indicator: TA98, Metabolic Activation: NONE', Method: STANDARD PLATE) was “active; positive”; the mutagenic call under setting [1] is “active; positive”; the mutagenic call under setting [2] is “active; positive”; the mutagenic call (Test System: AMES SALMONELLA TYPHIMURIUM, Strain/Indicator: TA98, Metabolic Activation: NONE, Method: STANDARD PLATE (ANAEROBIC)) was “active; positive”. The mutagenic call is, setting by setting: (Test System: AMES SALMONELLA TYPHIMURIUM, Strain/Indicator: TA98, Metabolic Activation: RAT, LIVER, HEPATOCYTES, AROCLOR 1254) “active; positive”; (Test System: AMES SALMONELLA TYPHIMURIUM, Strain/Indicator: TA98, Metabolic Activation: RAT, LIVER, S-9, AROCLOR 1254) “active; positive”; under setting [3], “active; positive”; (Test System: CHINESE HAMSTER OVARY, Strain/Indicator: CHO-K1-BH4 (HGPRT), Metabolic Activation: NONE) “inactive; negative”; (Test System: CHINESE HAMSTER OVARY, Strain/Indicator: CHO-K1-BH4 (HGPRT), Metabolic Activation: RAT, LIVER, S-9, 3-METHYLCHOLANTHRENE) “active; positive”; (Test System: CHO/HGPRT, Strain/Indicator: CHO-K1-BH4, Metabolic Activation: NONE) “inactive; negative”. The mutagenic call (Test System: CHO/HGPRT, Strain/Indicator: CHO-K1-BH4, Metabolic Activation: RAT, LIVER, HEPATOCYTES) was “inactive; negative”; the mutagenic call (Test System: CHO/HGPRT, Strain/Indicator: CHO-K1-BH4, Metabolic Activation: RAT, LIVER, HEPATOCYTES, 3-METHYLCHOLANTHRENE) was “inactive; negative”; the mutagenic call (Test System: CHO/HGPRT, Strain/Indicator: CHO-K1-BH4, Metabolic Activation: RAT, LIVER, HEPATOCYTES, AROCLOR 1254) was “inactive; negative”; the mutagenic call (Test System: CHO/HGPRT, Strain/Indicator: CHO-K1-BH4, Metabolic Activation: RAT, LIVER, S-9) is “inactive; negative”; the mutagenic call (Test System: CHO/HGPRT, Strain/Indicator: CHO-K1-BH4, Metabolic Activation: RAT, LIVER, S-9, 3-METHYLCHOLANTHRENE) was “active; positive”; the mutagenic call (Test System: CHO/HGPRT, Strain/Indicator: CHO-K1-BH4, Metabolic Activation: RAT, LIVER, S-9, AROCLOR 1254) was “active; positive”.

For the compound `CCCCCCC(C)OC(=O)C[S][Sn]([CH2]CCC)([S]CC(=O)OC(C)CCCCCC)[S]CC(=O)OC(C)CCCCCC` (centres undefined), the mutagenic call runs as follows: (Test System: AMES SALMONELLA TYPHIMURIUM, Strain/Indicator: TA97, Metabolic Activation: HAMSTER, LIVER, S-9, AROCLOR 1254 (10 OR 30%), Method: PREINCUBATION) “inactive; negative”; (Test System: AMES SALMONELLA TYPHIMURIUM, Strain/Indicator: TA97, Metabolic Activation: NONE, Method: PREINCUBATION) “inactive; negative”; (Test System: AMES SALMONELLA TYPHIMURIUM, Strain/Indicator: TA97, Metabolic Activation: RAT, LIVER, S-9, AROCLOR 1254 (10 OR 30%), Method: PREINCUBATION) “inactive; negative”; (Test System: AMES SALMONELLA TYPHIMURIUM, Strain/Indicator: TA98, Metabolic Activation: HAMSTER, LIVER, S-9, AROCLOR 1254 (10 OR 30%), Method: PREINCUBATION) “inactive; negative”; under setting [1], “inactive; negative”; (Test System: AMES SALMONELLA TYPHIMURIUM, Strain/Indicator: TA98, Metabolic Activation: RAT, LIVER, S-9, AROCLOR 1254 (10 OR 30%), Method: PREINCUBATION) “inactive; negative”. Further, the mutagenic call by setting is: (Test System: AMES SALMONELLA TYPHIMURIUM, Strain/Indicator: TA100, Metabolic Activation: HAMSTER, LIVER, S-9, AROCLOR 1254 (10 OR 30%), Method: PREINCUBATION) “inactive; negative”; (Test System: AMES SALMONELLA TYPHIMURIUM, Strain/Indicator: TA100, Metabolic Activation: NONE, Method: PREINCUBATION) “inactive; negative”; (Test System: AMES SALMONELLA TYPHIMURIUM, Strain/Indicator: TA100, Metabolic Activation: RAT, LIVER, S-9, AROCLOR 1254 (10 OR 30%), Method: PREINCUBATION) “inactive; negative”; (Test System: AMES SALMONELLA TYPHIMURIUM, Strain/Indicator: TA1535, Metabolic Activation: HAMSTER, LIVER, S-9, AROCLOR 1254 (10 OR 30%), Method: PREINCUBATION) “inactive; negative”; (Test System: AMES SALMONELLA TYPHIMURIUM, Strain/Indicator: TA1535, Metabolic Activation: NONE, Method: PREINCUBATION) “inactive; negative”; (Test System: AMES SALMONELLA TYPHIMURIUM, Strain/Indicator: TA1535, Metabolic Activation: RAT, LIVER, S-9, AROCLOR 1254 (10 OR 30%), Method: PREINCUBATION) “inactive; negative”.

Consider `ClC(Cl)=C(c1ccc(Cl)cc1)c1ccc(Cl)cc1`, for which the mutagenic call is “inactive; negative” (End Point: IN VITRO CHROMOSOMAL ABERRATIONS, Test System: CHINESE HAMSTER OVARY CELLS, Metabolic Activation: NONE); “inactive; negative” (End Point: IN VITRO CHROMOSOMAL ABERRATIONS, Test System: CHINESE HAMSTER OVARY CELLS, Metabolic Activation: RAT, LIVER, S-9, AROCLOR 1254); “inactive; negative” (Test System: AMES SALMONELLA TYPHIMURIUM, Strain/Indicator: TA97, Metabolic Activation: NONE, Method: STANDARD PLATE); “inactive; negative” (Test System: AMES SALMONELLA TYPHIMURIUM, Strain/Indicator: TA97, Metabolic Activation: RAT, LIVER, S-9, AROCLOR 1254, Method: STANDARD PLATE); “inactive; negative” under setting [2]; “inactive; negative” under setting [4]. Further, the mutagenic call was “inactive; negative” under setting [3]; “inactive; negative” under setting [5]; “active; positive” (Test System: CHINESE HAMSTER V-79, Strain/Indicator: V-79/8-AZAGUANINE, Metabolic Activation: NONE, Method: STANDARD PLATE); “active; positive” (Test System: MOUSE LYMPHOMA, Strain/Indicator: L5178Y (TK+/TK-), Metabolic Activation: NONE, Method: SUSPENSION/PLATE).

`CC1=CC=C(C(C)C)CC1`: the mutagenic call was “inactive; negative” (Test System: AMES SALMONELLA TYPHIMURIUM, Strain/Indicator: TA97A, Metabolic Activation: NONE, Method: STANDARD PLATE); “inactive; negative” (Test System: AMES SALMONELLA TYPHIMURIUM, Strain/Indicator: TA97A, Metabolic Activation: RAT, LIVER, S-9, AROCLOR 1254, Method: STANDARD PLATE); “inactive; negative” under setting [2]; “inactive; negative” under setting [4]; “inactive; negative” under setting [3]; “inactive; negative” under setting [5]. The mutagenic call runs as follows: (Test System: AMES SALMONELLA TYPHIMURIUM, Strain/Indicator: TA1535, Metabolic Activation: NONE, Method: STANDARD PLATE) “inactive; negative”; (Test System: AMES SALMONELLA TYPHIMURIUM, Strain/Indicator: TA1535, Metabolic Activation: RAT, LIVER, S-9, AROCLOR 1254, Method: STANDARD PLATE) “inactive; negative”.
